The test system of one test is H-22. Description: Syngeneic subcutaneous tumor model H-22. Format: in vivo, mouse. The conditions noted are these: H-22 model; Example 6 40 mg/kg p.o. BID up to 21 days. How it is done:
The efficacy of RIP1 inhibition was tested in 12 different murine (6-8 week old) syngeneic subcutaneous tumor models. RIP1 inhibition was tested as a single agent in all models, with anti-PD1 combination arms added to the five of the final models.
T and C are the mean tumor volume of the treated and control groups, respectively, on a given day. • 2) Tumor and plasma collection at study end for further investigation.
Cell Culture: The 12 syngeneic cell lines were maintained in vitro with different medium (indicated in Table 3) at 37° C. in an atmosphere of 5% CO2 in air. The tumor cells were routinely subcultured twice weekly. The cells in an exponential growth phase were harvested and counted for tumor inoculation.
Each mouse was inoculated subcutaneously with tumor cells in 0.1 mL of PBS for tumor development. The treatments were started when the mean tumor size reached approximately 80-120 mm^3 (around 100 mm^3).

In another test the target is T1, RIP1 (Homo sapiens, UniProt Q13546).
T1 construct: His-GST-RipK1(1-375) was purified from a Baculovirus expression system; His (N); GST (N); made in house
T1 sequence (Q13546 1-375): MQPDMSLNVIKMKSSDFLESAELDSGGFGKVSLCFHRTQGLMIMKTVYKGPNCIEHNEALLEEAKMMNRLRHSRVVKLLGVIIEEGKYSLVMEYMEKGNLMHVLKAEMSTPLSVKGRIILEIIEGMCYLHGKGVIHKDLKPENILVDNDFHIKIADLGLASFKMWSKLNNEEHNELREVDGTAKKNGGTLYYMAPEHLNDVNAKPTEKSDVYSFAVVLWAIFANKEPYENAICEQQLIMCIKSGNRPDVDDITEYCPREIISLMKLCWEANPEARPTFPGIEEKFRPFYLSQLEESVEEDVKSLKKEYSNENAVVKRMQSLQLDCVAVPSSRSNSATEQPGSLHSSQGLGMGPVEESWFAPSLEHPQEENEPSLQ
The test is described as follows: Fluorescent polarization based binding assay (FP Binding Assay). To be noted: His-GST-RipK1(1-375) 10 nM, fluorescent labeled ligand 5 nM.

Description for RIP1: In vitro Assay: A fluorescent polarization based binding assay was developed to quantitate interaction of novel test compounds at the ATP binding pocket of RIP1, by competition with a fluorescently labeled ATP competitive ligand. […] Test compounds were prepared in neat DMSO and 100 nL was dispensed to individual wells of a multiwell plate. […] Following the incubation, 5 μL of the fluorescent labeled ligand solution, was added to each reaction, at twice the final assay concentration, and incubated at room temperature for at least 15 minutes. Finally, samples were read on an instrument capable of measuring fluorescent polarization. Test compound inhibition was expressed as percent inhibition of internal assay controls. For concentration response experiments, normalized data were fit and pIC50 values determined using conventional techniques.

As to `N#Cc1cc(N2CCC(C(=O)N3N=CC[C@H]3c3cc(F)cc(F)c3)CC2)ncn1` [Example 6, (S)-6-(4-(5-(3,5-difluorophenyl)-4,5-dihydro-1H-pyrazole-1-carbonyl)piperidin-1-yl)pyrimidine-4-carbonitrile], in the test on H-22, the “Mean tumor growth inhibition (TGI) at model termination” value is on record as 19%.

As for `O=C(N[C@H]1CNc2cccc(F)c2NC1=O)c1nnc(Cc2ccccc2F)[nH]1` [Example 1, (S)—N-(9-Fluoro-2-oxo-2,3,4,5-tetrahydro-1H-benzo[b][1,4]diazepin-3-yl)-5-(2-fluorobenzyl)-4H-1,2,4-triazole-3-carboxamide], at RIP1, the “FP Binding Assay (pIC50)” value is given as 8.0.

Take `CN1C(=O)[C@@H](NC(=O)c2n[nH]c(Cc3ccccc3F)n2)CNc2ccccc21` [Example 3, (S)-5-(2-Fluorobenzyl)-N-(1-methyl-2-oxo-2,3,4,5-tetrahydro-1H-benzo[b][1,4]diazepin-3-yl)-1H-1,2,4-triazole-3-carboxamide]: at RIP1, the “FP Binding Assay (pIC50)” value came out at 7.4.

Source of the values: patent US20200062735A1, “HETEROCYCLIC AMIDES AS KINASE INHIBITORS” (GlaxoSmithKline Intellectual Property Development Limited, priority 2017, published 2020).
